Assay results: US6143492A, “Optical molecular sensors for cytochrome P450 activity” (Aurora Biosciences Corporation, priority 1999, dated 2000)
Several values for one entry are separate records, joined by “and”; a condition that tells them apart may be missing. Equal values may be shown once.

Legend:
CYP 2C19 = CYP 2C19 (Homo sapiens, UniProt P33261); assay: Kinetics of fluorogenic substrates with CYP 2C19; format: biochemical; conditions: for v (1.25 uM), turnover rate at 1.25 μM: CYP 2C19, substrate 1.25 uM; for v (10 uM), turnover rate at 10 μM: CYP 2C19, substrate 10 uM
CYP 1A2 = molecular target: T1, CYP 1A2 (Homo sapiens, UniProt P05177); assay: Kinetics of fluorogenic substrates with CYP 1A2; format: biochemical; conditions: for v (1.25 uM), turnover rate at 1.25 μM: CYP 1A2, substrate 1.25 uM; for v (10 uM), turnover rate at 10 μM: CYP 1A2, substrate 10 uM
T1 sequence (P05177 1-516): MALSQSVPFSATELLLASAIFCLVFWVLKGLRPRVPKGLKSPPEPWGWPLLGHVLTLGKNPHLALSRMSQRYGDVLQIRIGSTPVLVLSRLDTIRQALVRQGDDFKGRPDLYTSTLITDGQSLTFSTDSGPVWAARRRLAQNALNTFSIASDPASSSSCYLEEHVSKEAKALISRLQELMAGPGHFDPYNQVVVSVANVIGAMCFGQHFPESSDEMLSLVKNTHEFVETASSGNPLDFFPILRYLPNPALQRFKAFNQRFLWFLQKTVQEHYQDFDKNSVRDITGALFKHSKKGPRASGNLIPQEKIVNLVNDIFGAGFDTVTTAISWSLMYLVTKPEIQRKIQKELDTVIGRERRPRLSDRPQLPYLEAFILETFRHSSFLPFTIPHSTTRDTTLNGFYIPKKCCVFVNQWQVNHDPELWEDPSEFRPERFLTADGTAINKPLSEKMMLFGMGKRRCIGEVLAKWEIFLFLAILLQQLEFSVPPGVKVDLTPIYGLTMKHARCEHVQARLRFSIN

CYP 3A4 = molecular target: T2, CYP 3A4 (Homo sapiens, UniProt P08684); assay: Rate of hydroxylation of BOM-09B by CYP 3A4; format: biochemical
T2 construct: NADPH regenerating system
Method: The racemic compound mixture (designated BOM-09B) was tested for activity with cytochrome P450 isozymes. […] The CYP 3A4 assay was performed in a 96-well plate at 37° C. in a volume of 100 μL/well. BOM-09B was diluted from a stock solution of 1 mM in acetonitrile to a 4×concentration of 80 μM in 100 mM K+ phosphate buffer of which 25 μl was added to the appropriate wells. […] The cytochrome P450 isozyme CYP3A4 was diluted to give a 2 pmol enzyme per well. Enzymic conversion of the substrate to products was allowed to proceed for 1 hour with fluorescence reads taken every 4 minutes on a fluorescence microtiter plate reader. The solution was illuminated with an 395/25 nm excitation filter and fluorescence emission was detected through a 460/40 nm the emission filter.

CYP 2C9 = CYP 2C9 (Homo sapiens, UniProt P11712); assay: Kinetics of fluorogenic substrates with CYP 2C9; format: biochemical
CYP 2D6 = CYP 2D6 (Homo sapiens, UniProt P10635); assay: Kinetics of fluorogenic substrates with CYP 2D6; format: biochemical
CYP 2B6 = molecular target: T3, CYP 2B6 (Homo sapiens, UniProt P20813)
T3 sequence (P20813 1-491): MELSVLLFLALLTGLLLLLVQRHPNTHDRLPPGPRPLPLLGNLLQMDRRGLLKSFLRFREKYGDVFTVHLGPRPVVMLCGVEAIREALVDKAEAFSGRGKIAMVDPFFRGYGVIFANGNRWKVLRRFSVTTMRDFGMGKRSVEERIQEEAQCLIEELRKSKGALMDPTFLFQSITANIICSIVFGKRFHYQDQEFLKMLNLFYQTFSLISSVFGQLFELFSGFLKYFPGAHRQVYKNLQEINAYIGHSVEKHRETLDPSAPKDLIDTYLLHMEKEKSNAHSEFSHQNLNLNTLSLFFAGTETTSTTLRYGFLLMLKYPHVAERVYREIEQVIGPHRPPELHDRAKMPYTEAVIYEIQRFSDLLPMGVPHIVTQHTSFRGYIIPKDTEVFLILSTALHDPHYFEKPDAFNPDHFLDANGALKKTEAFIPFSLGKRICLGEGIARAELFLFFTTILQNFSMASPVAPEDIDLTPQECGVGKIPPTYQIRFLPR

Sequence of CYP 2D6 (P10635 whole entry): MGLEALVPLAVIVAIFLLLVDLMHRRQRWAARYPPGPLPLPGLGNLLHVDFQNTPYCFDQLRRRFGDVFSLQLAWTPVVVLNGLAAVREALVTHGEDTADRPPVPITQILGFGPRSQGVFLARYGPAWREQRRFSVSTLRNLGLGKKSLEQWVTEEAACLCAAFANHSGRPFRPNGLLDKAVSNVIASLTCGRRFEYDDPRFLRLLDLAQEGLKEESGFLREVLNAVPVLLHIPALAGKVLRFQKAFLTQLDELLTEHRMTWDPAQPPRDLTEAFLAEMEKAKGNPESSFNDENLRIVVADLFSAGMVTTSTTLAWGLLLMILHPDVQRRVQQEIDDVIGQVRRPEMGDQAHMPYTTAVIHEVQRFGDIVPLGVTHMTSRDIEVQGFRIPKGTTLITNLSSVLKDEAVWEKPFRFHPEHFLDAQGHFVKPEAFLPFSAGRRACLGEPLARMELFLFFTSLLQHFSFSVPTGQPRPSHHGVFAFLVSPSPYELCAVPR
T2 sequence (P08684 whole entry): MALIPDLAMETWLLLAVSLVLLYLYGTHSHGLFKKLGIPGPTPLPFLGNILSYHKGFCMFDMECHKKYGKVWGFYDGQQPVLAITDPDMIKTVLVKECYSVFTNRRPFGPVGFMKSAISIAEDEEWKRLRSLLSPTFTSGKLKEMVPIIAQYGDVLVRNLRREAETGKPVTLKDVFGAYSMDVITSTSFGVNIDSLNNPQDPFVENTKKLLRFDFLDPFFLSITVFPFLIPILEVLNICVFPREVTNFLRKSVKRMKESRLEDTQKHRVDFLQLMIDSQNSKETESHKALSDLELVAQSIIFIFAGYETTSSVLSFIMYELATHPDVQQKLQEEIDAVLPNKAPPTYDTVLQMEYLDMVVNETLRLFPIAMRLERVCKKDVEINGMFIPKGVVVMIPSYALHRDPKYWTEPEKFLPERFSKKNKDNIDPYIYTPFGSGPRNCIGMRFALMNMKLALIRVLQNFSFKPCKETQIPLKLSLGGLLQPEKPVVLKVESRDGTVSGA
Sequence of CYP 2C9 (P11712 whole entry): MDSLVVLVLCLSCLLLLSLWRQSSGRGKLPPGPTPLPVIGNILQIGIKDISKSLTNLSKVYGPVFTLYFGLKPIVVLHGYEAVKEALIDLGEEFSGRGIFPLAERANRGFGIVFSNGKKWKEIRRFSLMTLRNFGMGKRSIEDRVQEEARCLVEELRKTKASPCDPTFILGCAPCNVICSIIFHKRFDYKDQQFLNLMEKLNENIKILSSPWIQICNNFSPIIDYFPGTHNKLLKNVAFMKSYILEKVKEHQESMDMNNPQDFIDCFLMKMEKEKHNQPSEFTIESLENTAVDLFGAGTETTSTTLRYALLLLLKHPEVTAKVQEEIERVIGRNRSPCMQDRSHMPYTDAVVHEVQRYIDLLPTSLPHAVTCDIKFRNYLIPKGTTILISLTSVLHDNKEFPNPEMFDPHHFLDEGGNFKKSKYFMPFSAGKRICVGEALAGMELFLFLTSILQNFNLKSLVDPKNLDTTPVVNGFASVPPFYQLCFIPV
Sequence of CYP 2C19 (P33261 whole entry): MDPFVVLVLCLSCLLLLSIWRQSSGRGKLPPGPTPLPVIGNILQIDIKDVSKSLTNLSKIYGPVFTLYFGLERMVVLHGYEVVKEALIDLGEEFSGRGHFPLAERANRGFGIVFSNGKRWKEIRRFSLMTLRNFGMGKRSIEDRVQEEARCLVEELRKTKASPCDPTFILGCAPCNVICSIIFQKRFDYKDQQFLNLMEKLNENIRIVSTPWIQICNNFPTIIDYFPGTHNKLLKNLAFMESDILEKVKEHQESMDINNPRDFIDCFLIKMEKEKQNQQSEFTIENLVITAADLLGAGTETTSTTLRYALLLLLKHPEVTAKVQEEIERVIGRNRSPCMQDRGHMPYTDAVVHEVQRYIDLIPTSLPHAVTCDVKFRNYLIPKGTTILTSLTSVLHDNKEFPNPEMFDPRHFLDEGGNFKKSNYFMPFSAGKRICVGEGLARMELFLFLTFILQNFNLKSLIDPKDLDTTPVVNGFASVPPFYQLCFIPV

SMILES	kcat (CYP 2C19; CYP 2C19) [s⁻¹]	kcat/Km (CYP 2C19; CYP 2C19) [M⁻¹ s⁻¹]	type of kinetics (CYP 2C19; CYP 2C19)	v (1.25 uM), turnover rate at 1.25 μM (CYP 2C19) [min⁻¹]	v (10 uM), turnover rate at 10 μM (CYP 2C19) [min⁻¹]	kcat (CYP 1A2; CYP 1A2) [s⁻¹]	kcat/Km (CYP 1A2; CYP 1A2) [M⁻¹ s⁻¹]	type of kinetics (CYP 1A2; CYP 1A2)	v (1.25 uM), turnover rate at 1.25 μM (CYP 1A2) [min⁻¹]	v (10 uM), turnover rate at 10 μM (CYP 1A2) [min⁻¹]	also measured
CCOCOc1ccc2cc(C#N)c(=O)oc2c1 [EOMCC]	0.095	5723	Michaelis-	0.34	2.22	0.35	31818	Michaelis-	1.77	9.95	conversion to the same fluorescent product vs the most closely structurally-related substrate (CYP 2C19; CYP 2C19): more efficient conversion; conversion to the corresponding fluorescent product vs 3CEC (CYP 1A2; CYP 1A2): a little bit more efficiently
NC1CCCCC1NC(=O)c1cc2ccc(OCOCc3ccccc3)cc2oc1=O (racemic) [BOM-09B]	–	–	–	–	–	–	–	–	–	–	activity with the CYP 3A4 isozyme (CYP 3A4): particularly high activity; conversion rate (CYP 3A4; 37° C., pH 8.0, 1 hour): 0.75 pmol substrate/pmol enzyme·min; rate of conversion compared with BOMCC (CYP 3A4; identical conditions): half that of BOMCC
COc1ccc(COc2ccc3nc4ccc(=O)cc-4oc3c2)cc1 [MOBR, Paramethoxybenzylresorufin]	–	–	not MMK	1.26	0.69	–	–	–	–	–	conversion to the same fluorescent product vs the most closely structurally-related substrate (CYP 2C9; CYP 2C9): more efficient conversion; kcat (CYP 2C9; CYP 2C9): 0 s⁻¹; kcat/Km (CYP 2C9; CYP 2C9): 952 M⁻¹ s⁻¹; type of kinetics (CYP 2C9; CYP 2C9): Michaelis-; v (1.25 uM), turnover rate at 1.25 μM (CYP 2C9; CYP 2C9, substrate 1.25 uM): 0.02 min⁻¹; v (10 uM), turnover rate at 10 μM (CYP 2C9; CYP 2C9, substrate 10 uM): 0.02 min⁻¹; kcat/Km (CYP 2D6; CYP 2D6): 263 M⁻¹ s⁻¹; type of kinetics (CYP 2D6; CYP 2D6): Michaelis-; v (1.25 uM), turnover rate at 1.25 μM (CYP 2D6; CYP 2D6, substrate 1.25 uM): 0.0185 min⁻¹ and 0.02 min⁻¹; v (10 uM), turnover rate at 10 μM (CYP 2D6; CYP 2D6, substrate 10 uM): 0.0409 min⁻¹ and 0.04 min⁻¹; conversion to the same fluorescent product vs the most closely structurally-related substrate (CYP 2D6; CYP 3A4 and CYP 2D6, Table 8): more efficient conversion; kcat (CYP 2B6): 0.0067 s⁻¹; kcat/Km (CYP 2B6): 58333 M⁻¹ s⁻¹; type of kinetics (CYP 2B6): Michaelis-; v (1.25 uM), turnover rate at 1.25 μM (CYP 2B6): 0.08 min⁻¹; v (10 uM), turnover rate at 10 μM (CYP 2B6): 0.10 min⁻¹; Km (CYP 2B6; cyp 2b6): 0.1 µM
CCOc1ccc2cc(C#N)c(=O)oc2c1 [3CEC, 3-Cyano-7-ethoxycoumarin, reference compound]	0.0283	671	Michaelis-	0.05	0.34	0.733	28205	Michaelis-	1.73	12.55	–
